Data taken from patent publication US9220767B2 (priority 2008, dated 2015).

What was measured:
IgG1, IgG2a and IgG2b = test: Detection of IgG1, IgG2a and IgG2b in mouse sera by ELISA after intramuscular Agrippal and adjuvants; format: in vivo, mice; settings: for level of IgG1 in sera / level of IgG2a in sera / level of IgG2b in sera: 1, 4 or 8.9 μg Agrippal alone or + 1 μg adjuvant, ELISA; for level of IgG1 when the dose of Agrippal combined to the adjuvant was increased / level of IgG2a when the dose of Agrippal combined to the adjuvant was increased / level of IgG2b when the dose of Agrippal combined to the adjuvant was increased: Agrippal 1 to 8.9 μg + 1 μg adjuvant
Protocol: Mice were injected at day 0 and day 21 with: • PBS, • 1 μg Agrippal® alone, • 1 μg Agrippal®+1 μg PBS-57 in pegylated form or liposome formulation (PBS-57/S or PBS-57/L) or PBS-14 liposome formulation (PBS-14/L), • 4 μg Agrippal® alone, • 4 μg Agrippal®+1 μg PBS-57/S or PBS-57/L or PBS-14/L, • 8.9 μg Agrippal® alone, or • 8.9 μg Agrippal®+1 μg PBS-57/S or PBS-57/L or PBS-14/L.
Sera were collected at day 42 and the IgG1, IgG2a and IgG2b content of the sera was analysed by ELISA.
Mice were injected at day 0 with: • PBS, • 1 μg Agrippal® alone, • 1 μg Agrippal®+1 μg PBS-57 in pegylated form or liposome formulation (PBS-57/S or PBS-57/L) • 4 μg Agrippal® alone, • 4 μg Agrippal®+1 μg PBS-57/S or PBS-57/L, • 8.9 μg Agrippal® alone, or • 8.9 μg Agrippal®+1 μg PBS-57/S or PBS-57/L.
Sera were collected at day 21 and the IgG1 and IgG2b content of the sera was analysed by ELISA.

[1] = tested on: three prototypical strains (A/Brisbane/10/2007, A/Brisbane/59/2007, and B/Florida/4/2006); test: Indirect hemagglutination assay (IHA) of immunised mice sera, statements not split by strain; format: in vivo; settings: for IHA titers induced by Fluarix vaccination: mice immunised twice with Fluarix + adjuvant, vs Fluarix alone (Example 3)
Protocol: (§1) Mice were injected by intramuscular route at day 0 and day 21 with: • NaCl, • 1 μg Fluarix® alone, • 1 μg Fluarix®+1 μg PBS-57/S, or • 1 μg Fluarix®+1 μg PBS-57/L.
(§2) Sera were collected at day 42 and reactivity with the three prototypical strains (A/Brisbane/10/2007, A/Brisbane/59/2007, and B/Florida/4/2006) of Fluarix® vaccine was assayed by measuring IHA titers for each of these strains (see FIG. 7).
(§3) Mice were injected by intramuscular route at day 0 and day 21 with: • nothing (naïve mice), • PBS, • 4 μg Agrippal® alone, • 8.9 μg Agrippal® alone, • 4 μg Agrippal®+1 μg PBS-57 in liposome formulation (PBS-57/L) or PBS-14 liposome formulation (PBS-14/L), or • 8.9 μg Agrippal®+1 μg PBS-57 in PEGylated form (PBS-57/S) or PBS-57/L or PBS-14/L.
(§4) Sera were collected at day 42 and reactivity with the three prototypical strains (H3 A/Brisbane/10/2007, H1 A/Brisbane/59/2007, and B/Florida/4/2006) of Agrippal® vaccine was assayed by measuring IHA titers for each of these strains (see FIG. 8).
Mice were injected by intramuscular route at day 0 with: • NaCl, • PBS-57/D alone, • PBS-57/L alone, • PBS-57/S alone, • 4 μg Agrippal® alone, • 8.9 μg Agrippal® alone, • 4 μg Agrippal®+1 μg PBS-57 in liposome formulation (PBS-57/L) or in pegylated form (PBS-57/S) or in DMSO (PBS-57/D), or • 8.9 μg Agrippal®+1 μg PBS-57/L or PBS-57/S or PBS-57/D.
Sera were collected at day 21 and reactivity with the three prototypical strains (H3 A/Brisbane/10/2007, H1 A/Brisbane/59/2007, and B/Florida/4/2006) of Agrippal® vaccine was assayed by measuring IHA titers for each of these strains (see FIG. 9).
Mice were injected by intramuscular route at day 0 with: • PBS, • 1 μg PBS-57 in DMSO (PBS-57/D) alone • 1 μg PBS-57 in PEGylated form (PBS-57/S) alone, • 1 μg PBS-57 in liposome formulation (PBS-57/L) alone, • 4 μg Agrippal® alone, • 8.9 μg Agrippal® alone, • 4 μg Agrippal®+1 μg PBS-57/D, PBS-57/S or PBS-57/L, or • 8.9 μg Agrippal®+1 μg PBS-57/D, PBS-57/S or PBS-57/L.
(§5) Agrippal® vaccine comprises a mixture of A/Brisbane/10/2007-like, A/Brisbane/59/2007-like, and B/Florida/4/2006-like strains.
Sera were collected at day 21 and reactivity with the three prototypical strains (H3 A/Brisbane/10/2007, H1 A/Brisbane/59/2007, and B/Florida/4/2006) of Agrippal® vaccine was assayed by measuring IHA titers for each of these strains (see FIG. 20).

H3 A/Brisbane/10/2007 = test: Indirect hemagglutination assay (IHA) of immunised mice sera, strain A/Brisbane/10/2007; format: in vivo; settings: 1 μg Fluarix + 1 μg adjuvant i.m. day 0 and 21; sera day 42; vs Fluarix alone
Protocol: as §1
(§6) Fluarix® vaccine comprises a mixture of A/Brisbane/10/2007-like, A/Brisbane/59/2007-like, and B/Florida/4/2006-like strains.
as §2, §3, §5
Sera were collected at day 42 and reactivity with the three prototypical strains (H3 A/Brisbane/10/2007, H1 A/Brisbane/59/2007, and B/Florida/4/2006) of Agrippal® vaccine was assayed by measuring IHA titers for each of these strains (see FIG. 8). […]

H1 A/Brisbane/59/2007 = test: Indirect hemagglutination assay (IHA) of immunised mice sera, strain A/Brisbane/59/2007; format: in vivo; settings: 1 μg Fluarix + 1 μg adjuvant i.m. day 0 and 21; sera day 42; vs Fluarix alone
Protocol: as §1, §6, §2, §3, §5, §4

B/Florida/4/2006 = test: Indirect hemagglutination assay (IHA) of immunised mice sera, strain B/Florida/4/2006; format: in vivo; settings: 1 μg Fluarix + 1 μg adjuvant i.m. day 0 and 21; sera day 42; vs Fluarix alone
Protocol: as §1, §6, §2, §3, §5, §4

[2] = tested on: iNKT (Vβ11/Vα24+ cells) from adults PBMC; test: In vitro iNKT activation, adult PBMC; format: cell-based; settings: 7 days culture with IL-2, 10 or 100 ng/ml, compared to 100 ng α-GalCer
Protocol: (§7) Adults PBMC and cord blood mononuclear cells (CBMC) were either non stimulated, or cultured in vitro with IL-2 alone or IL-2 combined with 100 ng α-GalCer or PBS-57/D or PBS-57/L (at 10 ng/ml or 100 ng/ml).
(§8) After 7 days of culture, activation of iNKT was determined by assessing the percentage of Vβ11/Vα24^+ cells amplified from PBMC or CBMC (FIGS. 13 and 14).

[3] = tested on: iNKT (Vβ11/Vα24+ cells) from cord blood mononuclear cells (CBMC); test: In vitro iNKT activation, cord blood mononuclear cells; format: cell-based; settings: 7 days culture with IL-2, 10 or 100 ng/ml, compared to 100 ng α-GalCer
Protocol: as §7, §8

[4] = mice injected day 0 and day 21, sera day 42
[5] = two injections (day 0, 21), sera day 42
[6] = mice immunised twice (day 0, 21) with Agrippal + 1 μg adjuvant, sera day 42 (Example 4)
[7] = single injection day 0 of Agrippal + 1 μg adjuvant, sera day 21 (Example 5)
[8] = single injection day 0, sera day 21

Compound	level of IgG1 in sera (IgG1, IgG2a and IgG2b; [4])	level of IgG2a in sera (IgG1, IgG2a and IgG2b; [4])	level of IgG2b in sera (IgG1, IgG2a and IgG2b; [4])	level of IgG1 when the dose of Agrippal combined to the adjuvant was increased (IgG1, IgG2a and IgG2b; [5])	level of IgG2a when the dose of Agrippal combined to the adjuvant was increased (IgG1, IgG2a and IgG2b; [5])	level of IgG2b when the dose of Agrippal combined to the adjuvant was increased (IgG1, IgG2a and IgG2b; [5])	IHA titers as compared with the Agrippal vaccine alone [1, 6]	IHA titers induced by Fluarix vaccination [1]	IHA titers as compared with the Agrippal vaccine alone [1, 7]	level of IgG1 in sera (IgG1, IgG2a and IgG2b; [8])	level of IgG2b in sera (IgG1, IgG2a and IgG2b; [8])	level of IgG1 when the dose of Agrippal combined to the adjuvant was increased (IgG1, IgG2a and IgG2b; [8])	level of IgG2b when the dose of Agrippal combined to the adjuvant was increased (IgG1, IgG2a and IgG2b; [8])	IHA titers induced by Fluarix vaccination against A/Brisbane/10/2007 (H3 A/Brisbane/10/2007)	IHA titers induced by Fluarix vaccination against A/Brisbane/59/2007 (H1 A/Brisbane/59/2007)	IHA titers induced by Fluarix vaccination against B/Florida/4/2006 (B/Florida/4/2006)	IHA titers as compared with the Agrippal vaccine alone ([1]; single injection day 0 of 4 or 8.9 μg Agrippal + 1 μg adjuvant, sera day 21 (Example 12))	activation of iNKT (percentage of Vβ11/Vα24+ cells amplified) [2]	activation of iNKT (percentage of Vβ11/Vα24+ cells amplified) [3]
CCCCCCCCCCCCCCCCCCCCCCCCCC(=O)N[C@@H](COC1OC(CNC(C)=O)C(O)C(O)C1O)[C@H](O)[C@H](O)CCCCCCCCCCCCCC (stereo partly shown) [PBS-14]	increases	increases	increases	not significantly further increased	not significantly further increased	not significantly further increased	increased IHA titers	same results	increased IHA titers	–	–	–	–	–	–	–	–	–	–
CCCCCCCC/C=C\CCCCCCCCCCCCCC(=O)N[C@@H](COC1OC(CNC(C)=O)C(O)C(O)C1O)[C@H](O)[C@H](O)CCCCCCCCCCCCCC (stereo partly shown) [PBS-57]	increases	increases	increases	not significantly further increased	not significantly further increased	not significantly further increased	increased IHA titers	–	increased IHA titers	increases	increases	not significantly further increased	not significantly further increased	significantly enhanced	enhanced but to a less significant level	significantly enhanced	increased IHA titers	stronger activation of iNKT compared to α-GalCer	stronger activation of iNKT compared to α-GalCer
CCCCCCCCCCCCCCCCCCCCCCCC(=O)N[C@@H](COC1OC(CNC(C)=O)C(O)C(O)C1O)[C@H](O)[C@H](O)CCCCCCCCCCCCCC (stereo partly shown) [PBS-96]	–	–	–	–	–	–	–	same results	–	–	–	–	–	–	–	–	–	–	–
